US11083725B2 (priority 2014, dated 2021)

System: NHBE cells
Assay: Biolog metabolic array: substrate use by NHBE cells with or without CA09 infection
Format: cell-based, human
Conditions: for Substrate use, 590 nm absorbance normalized to zero hour, 0 hr: Biolog PMM2, 0 hr; for Substrate use, 590 nm absorbance normalized to zero hour, 7 hr: Biolog PMM2, 7 hr
[1] = Control (uninfected) NHBE cells
[2] = Virus (CA09-infected, MOI 1) NHBE cells
[3] = Virus: CA09-infected NHBE cells, MOI 1, Biolog PMM2

| Substance | 590 nm absorbance normalized to zero hour (substrate use), 0 hr [1] | 590 nm absorbance normalized to zero hour (substrate use), 6 hr [1] | 590 nm absorbance normalized to zero hour (substrate use), 8 hr [1] | 590 nm absorbance normalized to zero hour (substrate use), 9 hr [1] | 590 nm absorbance normalized to zero hour (substrate use), 10 hr [1] | 590 nm absorbance normalized to zero hour (substrate use), 11 hr [1] | Substrate use, 590 nm absorbance normalized to zero hour, 0 hr [1] | Substrate use, 590 nm absorbance normalized to zero hour, 7 hr [1] | 590 nm absorbance normalized to zero hour (substrate use), 0 hr [2] | 590 nm absorbance normalized to zero hour (substrate use), 1 hr [2] | 590 nm absorbance normalized to zero hour (substrate use), 2 hr [2] | 590 nm absorbance normalized to zero hour (substrate use), 3 hr [2] | 590 nm absorbance normalized to zero hour (substrate use), 4 hr [2] | 590 nm absorbance normalized to zero hour (substrate use), 5 hr [2] | 590 nm absorbance normalized to zero hour (substrate use), 7 hr [2] | 590 nm absorbance normalized to zero hour (substrate use), 8 hr [2] | 590 nm absorbance normalized to zero hour (substrate use), 9 hr [2] | 590 nm absorbance normalized to zero hour (substrate use), 10 hr [2] | 590 nm absorbance normalized to zero hour (substrate use), 11 hr [2] | 590 nm absorbance normalized to zero hour (substrate use), 0 hr [3] | further results |
| --- | --- | --- | --- | --- | --- | --- | --- | --- | --- | --- | --- | --- | --- | --- | --- | --- | --- | --- | --- | --- | --- |
| Dextrin | 1.00 | 4.79 | 8.34 | 9.71 | 8.28 | 8.41 | 1.00 | 7.35 | 1.00 | 2.14 | 2.79 | 3.43 | 3.84 | 4.91 | 6.11 | 6.72 | 7.89 | 8.23 | 6.40 | 1.00 | 590 nm absorbance normalized to zero hour (substrate use), 2 hr [1]: 3.19; 590 nm absorbance normalized to zero hour (substrate use), 3 hr [1]: 4.01; Substrate use, 590 nm absorbance normalized to zero hour, 5 hr (Control (uninfected) NHBE cells, Biolog PMM2, 5 hr): 6.14; 590 nm absorbance normalized to zero hour (substrate use), 6 hr [2]: 5.56; 590 nm absorbance normalized to zero hour (substrate use), 1 hr [3]: 2.14; 590 nm absorbance normalized to zero hour (substrate use), 2 hr [3]: 2.79; 590 nm absorbance normalized to zero hour (substrate use), 3 hr [3]: 3.43; 590 nm absorbance normalized to zero hour (substrate use), 4 hr [3]: 3.84; 590 nm absorbance normalized to zero hour (substrate use), 5 hr [3]: 4.91; 590 nm absorbance normalized to zero hour (substrate use), 6 hr [3]: 5.56; 590 nm absorbance normalized to zero hour (substrate use), 7 hr [3]: 6.11; 590 nm absorbance normalized to zero hour (substrate use), 8 hr [3]: 6.72; 590 nm absorbance normalized to zero hour (substrate use), 9 hr [3]: 7.89; 590 nm absorbance normalized to zero hour (substrate use), 10 hr [3]: 8.23; 590 nm absorbance normalized to zero hour (substrate use), 11 hr [3]: 6.40 |
| Glycogen | 1.00 | 4.32 | 4.85 | 4.87 | 4.50 | 5.01 | 1.00 | 4.20 | 1.00 | 1.68 | 2.26 | 2.71 | 2.92 | 3.70 | 4.74 | 5.48 | 3.99 | 4.33 | 4.63 | 1.00 | 590 nm absorbance normalized to zero hour (substrate use), 1 hr [1]: 1.61; 590 nm absorbance normalized to zero hour (substrate use), 4 hr [1]: 2.80; Substrate use, 590 nm absorbance normalized to zero hour, 1 hr (Control (uninfected) NHBE cells, Biolog PMM2, 1 hr): 1.61; Substrate use, 590 nm absorbance normalized to zero hour, 3 hr (Control (uninfected) NHBE cells, Biolog PMM2, 3 hr): 2.58; 590 nm absorbance normalized to zero hour (substrate use), 1 hr [3]: 1.68; 590 nm absorbance normalized to zero hour (substrate use), 2 hr [3]: 2.26; 590 nm absorbance normalized to zero hour (substrate use), 3 hr [3]: 2.71; 590 nm absorbance normalized to zero hour (substrate use), 4 hr [3]: 2.92; 590 nm absorbance normalized to zero hour (substrate use), 5 hr [3]: 3.70; 590 nm absorbance normalized to zero hour (substrate use), 7 hr [3]: 4.74; 590 nm absorbance normalized to zero hour (substrate use), 8 hr [3]: 5.48; 590 nm absorbance normalized to zero hour (substrate use), 9 hr [3]: 3.99; 590 nm absorbance normalized to zero hour (substrate use), 10 hr [3]: 4.33; 590 nm absorbance normalized to zero hour (substrate use), 11 hr [3]: 4.63 |
